This passage reports IC50 results from patent US12448368B2, “Indole compounds as androgen receptor modulators” (NIDO BIOSCIENCES, INC., priority 2020, dated 2025).

The target of the test is T1, androgen receptor (AR) (Homo sapiens, UniProt P10275, T878A).
T1 construct: LNCaP cells expressing ARR2PB-FireflyLuc and CMV-RenillaLuc; endogenous in cells; host or cells: LNCaP cells carrying ARR2PB-FireflyLuc and CMV-RenillaLuc reporters
T1 sequence (P10275 1-920 T878A): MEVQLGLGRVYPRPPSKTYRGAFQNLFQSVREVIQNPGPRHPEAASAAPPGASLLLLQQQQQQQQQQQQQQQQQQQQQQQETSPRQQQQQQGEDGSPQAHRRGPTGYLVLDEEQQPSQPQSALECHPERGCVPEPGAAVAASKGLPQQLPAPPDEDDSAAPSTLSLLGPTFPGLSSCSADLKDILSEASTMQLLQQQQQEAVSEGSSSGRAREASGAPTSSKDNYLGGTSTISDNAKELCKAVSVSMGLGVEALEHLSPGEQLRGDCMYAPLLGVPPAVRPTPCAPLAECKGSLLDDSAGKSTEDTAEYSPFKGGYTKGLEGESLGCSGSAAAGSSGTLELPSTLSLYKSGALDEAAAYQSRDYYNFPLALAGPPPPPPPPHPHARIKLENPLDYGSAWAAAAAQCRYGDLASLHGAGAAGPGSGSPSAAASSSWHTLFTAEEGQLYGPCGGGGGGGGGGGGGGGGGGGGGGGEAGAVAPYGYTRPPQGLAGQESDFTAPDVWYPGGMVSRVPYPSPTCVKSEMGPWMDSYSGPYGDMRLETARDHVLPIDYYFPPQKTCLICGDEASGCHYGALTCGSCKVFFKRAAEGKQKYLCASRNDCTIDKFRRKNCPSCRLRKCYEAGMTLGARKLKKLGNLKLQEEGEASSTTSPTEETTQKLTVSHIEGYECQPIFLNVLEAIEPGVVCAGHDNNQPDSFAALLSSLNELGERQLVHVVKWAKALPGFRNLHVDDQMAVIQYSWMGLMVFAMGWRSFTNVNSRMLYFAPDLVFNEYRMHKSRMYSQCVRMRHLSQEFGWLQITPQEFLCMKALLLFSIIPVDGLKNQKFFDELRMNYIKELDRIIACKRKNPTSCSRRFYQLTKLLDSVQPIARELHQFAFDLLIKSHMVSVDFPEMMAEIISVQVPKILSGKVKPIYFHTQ
Put plainly: AR reporter assay in LNCaP cells expressing ARR2PB-FireflyLuc and CMV-RenillaLuc, antagonist mode (% remaining activity, IC50). The note with it: 48 h at 37° C., class symbols A-D, read-out: IC50. Type of test: cell-based. As for the experimental part: LNCaP cells expressing ARR2PB-FireflyLuc and CMV-RenillaLuc were treated with indicated concentrations of test compounds, enzalutamide (negative control), or DHT (positive control)+/−0.5 nM DHT for 48 h at 37° C. […] Remaining activity (antagonist mode) was calculated as % Remaining Activity=100×[(Readsample−LCave)/(HCave−LCave)] where HC is cells treated with 0.5 nM DHT only and LC is cells treated with 10 uM enzalutamide+0.5 nM DHT. Activation (agonist mode) was calculated as % Activation=100×[(ReadSample−LCave)/(HCave−LCave)] where HC is cells treated with 1 uM DHT and LC is cells treated with DMSO. Dose response curves and IC50 values were calculated using non-linear regression analysis in XLfit.
The designation “A” indicates an IC50 value of >10 μM, “B” indicates an IC50 value between 1 μM and 10 μM; “C” indicates an IC50 value between 100 nM and 1 μM; and “D” indicates an IC50 value of less than 100 nM.
A general note: Reporter assays use an easily measured gene product as a stand-in for the process of interest.
As for `N#Cc1cccc2c(-c3ccc(N)c(Cl)n3)c[nH]c12` [Compound 137], the IC50 – broadly, the point on the concentration scale where inhibition reaches its midpoint – was in the range of 100 to 1000 nM. For `Cc1cc(-c2c[nH]c3c(C#N)cccc23)ncc1N` [Compound 138] the value was 1000 to 10000 nM; for `N#Cc1cccc2c(-c3ccc(N)c(C4CC4)n3)c[nH]c12` [Compound 139], under 100 nM; for `Cc1nc(-c2c[nH]c3c(C)cccc23)ccc1N` [Compound 140], 1000 to 10000 nM. With `Cc1nc(-c2c[nH]c3c(F)cccc23)ccc1N` [Compound 141], the IC50 lay in the range of 1000 to 10000 nM. The value for `Cc1nc(-c2c[nH]c3c(C4CC4)cccc23)ccc1N` [Compound 142] was 1000 to 10000 nM; that for `CC1(C)NC(=O)c2ccc(-c3c[nH]c4cc(F)c(F)cc34)cc21` [Compound 143] was 1000 to 10000 nM; that for `Cc1nc(-c2c[nH]c3c(-c4nnco4)cccc23)ccc1N` [Compound 144] was over 10000 nM. For `CNC(=O)c1cccc2c(-c3ccc(N)c(C)n3)c[nH]c12` [Compound 145] the value was over 10000 nM; for `CNc1ccc(-c2c[nH]c3c(C#N)cccc23)nc1C` [Compound 146], under 100 nM.

With `CCNc1ccc(-c2c[nH]c3c(C#N)cccc23)nc1C` [Compound 147], the IC50 was 100 to 1000 nM. In the case of `Cc1nc(-c2c[nH]c3c(C#N)cccc23)ccc1N(C)C` [Compound 148], the IC50 is under 100 nM.

As to `Cc1nc(-c2c[nH]c3c(C#N)cccc23)cnc1N` [Compound 149], the IC50 lay in the range of 100 to 1000 nM. For `Cc1ccc2c(-c3ccc(N)c(C)n3)c[nH]c2c1C#N` [Compound 150] the value was 1000 to 10000 nM; for `Cc1nc(-c2c[nH]c3c(C#N)c(Cl)ccc23)ccc1N` [Compound 151], 100 to 1000 nM.

In the case of `Cc1cc(C#N)c2[nH]cc(-c3ccc(N)c(C)n3)c2c1` [Compound 152], the IC50 is 1000 to 10000 nM. Regarding `Cc1nc(-c2c[nH]c3c(C#N)cc(Cl)cc23)ccc1N` [Compound 153], the IC50 was 1000 to 10000 nM. Turning to `NCc1cc(F)cc2c(-c3ccc4ncccc4n3)c[nH]c12` [Compound 154], the IC50 lay in the range of 100 to 1000 nM. For `Cc1nc(-c2c(C)[nH]c3c(C#N)cccc23)ccc1N` [Compound 155] the value was over 10000 nM; for `CN1C(=O)c2ccc(-c3c[nH]c4c(C#N)cccc34)nc2C1(C)C` [Compound 156], 100 to 1000 nM.

Turning to `COCCN1C(=O)c2ccc(-c3c[nH]c4c(C#N)cccc34)nc2C1(C)C` [Compound 157], the IC50 was over 10000 nM. The value for `CC1(C)c2nc(-c3c[nH]c4c(C#N)cccc34)ccc2C(=O)N1C1CCOC1` (stereo not drawn) [Compound 158] was over 10000 nM; that for `Cc1nc(-c2c[nH]c3c(C(F)(F)F)cccc23)ccc1N` [Compound 159] was 100 to 1000 nM; that for `CC(=O)c1cccc2c(-c3ccc(N)c(C)n3)c[nH]c12` [Compound 160] was over 10000 nM. The value for `Cc1cccc(-c2c[nH]c3cc(C#N)ccc23)n1` [Compound 161] was 1000 to 10000 nM. The value for `Cc1cccc(-c2c[nH]c3ccc(C#N)cc23)n1` [Compound 162] was 1000 to 10000 nM. On to `COCCNc1ccc(-c2c[nH]c3c(C#N)cccc23)nc1C` [Compound 163], for which the IC50 is 100 to 1000 nM. For `Cc1nc(-c2c[nH]c3c(C#N)cccc23)ccc1NC1CCOC1` (stereo not drawn) [Compound 164] the value was 100 to 1000 nM; for `COCCOc1ccc(-c2c[nH]c3c(C#N)cccc23)nc1C` [Compound 165], 100 to 1000 nM. For `COc1ccc(-c2c[nH]c3c(C#N)cccc23)nc1C` [Compound 166] the value was under 100 nM. `COCCOc1cccc(-c2c[nH]c3c(C#N)cccc23)n1` [Compound 167]: the IC50 was in the range of 1000 to 10000 nM. For `N#Cc1cccc2c(-c3cccc(OC4CCNC4)n3)c[nH]c12` (stereo not drawn) [Compound 168] the value was over 10000 nM; for `COCCOc1nc(-c2c[nH]c3c(C#N)cccc23)ccc1N` [Compound 170], 100 to 1000 nM; for `N#Cc1cccc2c(-c3cnc(OC(F)F)c(N)c3)c[nH]c12` [Compound 171], under 100 nM.

On to `N#Cc1cccc2c(-c3cnc(N)c(OC(F)F)n3)c[nH]c12` [Compound 172], for which the IC50 is under 100 nM.

For `CN1C(=O)c2ccc(-c3c[nH]c4c(C#N)cccc34)nc2C1(C)CO` (stereo not drawn) [Compound 173], the IC50 lay in the range of 1000 to 10000 nM. For `N#Cc1cccc2c(-c3cnccn3)c[nH]c12` [Compound 174], the IC50 lay in the range of 1000 to 10000 nM. Take `Cc1cncc(-c2c[nH]c3c(C#N)cccc23)n1` [Compound 175]: the IC50 lay within 100 to 1000 nM. Take `N#Cc1cccc2c(-c3ccccn3)c[nH]c12` [Compound 176]: the IC50 lay in the range of 100 to 1000 nM. For `COCCN(C)c1cncc(-c2c[nH]c3c(C#N)cccc23)n1` [Compound 177] the value was 100 to 1000 nM; for `N#Cc1cccc2c(-c3cccc(N4CCC4)n3)c[nH]c12` [Compound 178], 100 to 1000 nM; for `Cc1nc2ccc(-c3c[nH]c4c(C#N)cccc34)cc2s1` [Compound 179], 100 to 1000 nM. On to `N#Cc1cccc2c(-c3ccc4nc(N)sc4c3)c[nH]c12` [Compound 180], for which the IC50 lay within 1000 to 10000 nM. For `Cc1nc(-c2c[nH]c3c(C#N)cccc23)cnc1NC1CCNC1` (stereo not drawn) [Compound 181] the value was 100 to 1000 nM. For `Cc1nc(-c2c[nH]c3c(C#N)cccc23)cnc1NC1CCN(C)C1` (stereo not drawn) [Compound 182] the value was 100 to 1000 nM; for `Cc1nc(-c2c[nH]c3c(C#N)cccc23)cnc1OC1CCNC1` (stereo not drawn) [Compound 183], 100 to 1000 nM. For the compound `CC1(C)NC(=O)c2ccc(-c3c[nH]c4c(C#N)c(F)ccc34)nc21` [Compound 184], the concentration for half-maximal inhibition (IC50) is 100 to 1000 nM. For `CC1(C)NC(=O)c2ccc(-c3c[nH]c4c(C#N)c(Cl)ccc34)nc21` [Compound 185], the 50% inhibitory concentration (IC50) lay within 1000 to 10000 nM. The value for `Cc1nc(-c2c[nH]c3c(C(F)(F)F)cccc23)cnc1N` [Compound 186] was 100 to 1000 nM; that for `CC1(C)NC(=O)c2ccc(-c3c[nH]c4c(C(F)(F)F)cccc34)nc21` [Compound 187] was under 100 nM; that for `CN1C(=O)c2ccc(-c3c[nH]c4c(C(F)(F)F)cccc34)nc2C1(C)C` [Compound 188] was 100 to 1000 nM.

Regarding `Cc1nc(-c2c[nH]c3c(C#N)cccc23)ccc1NCCO` [Compound 190], the IC50 was in the range of 100 to 1000 nM. For `Cc1nc(-c2c[nH]c3c(C#N)cccc23)ccc1NC(C)C(=O)N(C)C` (stereo not drawn) [Compound 191] the value was 1000 to 10000 nM; for `N#Cc1cccc2c(-c3ccc(N)c(OC(F)F)n3)c[nH]c12` [Compound 192], 100 to 1000 nM. Turning to `Cc1nc(-c2c[nH]c3c(C#N)cccc23)cnc1OC1CCN(C)C1` (stereo not drawn) [Compound 193], the IC50 lay within 1000 to 10000 nM. The value for `CC(=O)N1CCC(Oc2ncc(-c3c[nH]c4c(C#N)cccc34)nc2C)C1` (stereo not drawn) [Compound 194] was 100 to 1000 nM.

For the compound `COC(C)CNc1ccc(-c2c[nH]c3c(C#N)cccc23)nc1C` (stereo not drawn) [Compound 195], the IC50 was 100 to 1000 nM. For `Cc1nc(-c2c[nH]c3c(C#N)cccc23)ccc1NCCN(C)C` [Compound 196] the value was 1000 to 10000 nM; for `Cc1nc(-c2c[nH]c3c(C#N)cccc23)ccc1NCC(=O)N(C)C` [Compound 197], over 10000 nM. Regarding `Cc1nc(-c2c[nH]c3c(C(F)(F)F)cccc23)cnc1OC1CCNC1` (stereo not drawn) [Compound 198], the IC50 was 100 to 1000 nM. Regarding `Cc1nc(-c2c[nH]c3c(C#N)cccc23)ccc1OC1CCNC1=O` (stereo not drawn) [Compound 199], the IC50 was in the range of 1000 to 10000 nM. The value for `Fc1ccc(-c2c[nH]c3cnccc23)nc1` [Compound 200] was over 10000 nM; that for `Fc1ccc(-c2c[nH]c3cccnc23)nc1` [Compound 201] was 1000 to 10000 nM; that for `Fc1ccc(-c2c[nH]c3cc(F)cnc23)nc1` [Compound 202] was 100 to 1000 nM.

As to `Cc1ccc2c(-c3ccc(F)cc3)c[nH]c2n1` [Compound 203], the IC50 was in the range of 1000 to 10000 nM.

As to `N#Cc1cc(F)cc2c(-c3ccc4ccc(F)cc4n3)c[nH]c12` [Compound 204], the IC50 fell in the range of 100 to 1000 nM.
